Results reported in the NIST ThermoML archive (doi:10.1016/j.tca.2015.06.009).
Numbers after ± are expanded uncertainties.

Legend:
[1] = 300 K; 101.33 kPa; Crystal; Photoacoustics
[2] = isobaric coefficient of expansion; conditions: 300 K; 101.33 kPa; Crystal; Photoacoustics

| Structure (SMILES) | thermal diffusivity [1] [m2/s] | isobaric coefficient of expansion [2] |
| --- | --- | --- |
| [Ag] [silver] | 0.000174 ± 1.2e-05 | 1.4e-05 ± 1e-06 1/K |
| [Al] [aluminum] | 9.37e-05 ± 1.6e-06 | 1.5e-05 ± 1e-06 1/K |
| [Cu] [copper] | 0.000116 ± 4e-06 | 1.3e-05 ± 1e-06 1/K |
